Legend:
[1] = system: Airway reactivity acceleration (antigen-induced); experiment: Antigen-Induced Airway Reactivity Acceleration Inhibitory Activity in Mice [Test on Chronic Inflammation]; assay type: in vivo, BALB/c mice; conditions: oral, once a day for 10 days, acetylcholine 30 μg/animal i.v.
Procedure: Antigen-Induced Airway Reactivity Acceleration Inhibitory Activity in Mice [Test on Chronic Inflammation]
The model for this test was prepared out in accordance with the method of Nagai et al. (Life Sciences, Vol. 54, pp. 471-475, 1994). Each of BALB/c mice was immunized by the intraperitoneal injection of 1 μg of egg albumin which had been adsorbed to 1 mg of ALUM. After 14 days of the immunization, each animal was exposed to 1% egg albumin solution using an ultrasonic nebulizer, and this treatment was repeated three times at 3 day intervals. After 24 hours of the final exposure, the airway contraction reaction against intravenously injected acetylcholine (30 μg/animal) was measured as overflow volume (×0.01 ml) by the modified method of Konzett and Rossler under pentobarbital anesthesia. Each of the drugs to be tested (compounds 1 and 2) was suspended in 0.5% HPMC solution and orally administered once a day for a total of 10 days starting from the day before the antigen exposure until the day of final exposure. Accelerated quantity of the airway contraction reaction caused by the antigen exposure was calculated by subtracting the contraction reaction against intravenously injected acetylcholine in the case of the same treatment of normal mice, and the airway reactivity acceleration inhibition ratio (%) of the drugs to be tested was calculated based on the solvent-administered (control) group.

[2] = system: Mouse ear edema reaction (egg albumin-induced); experiment: Ear Edema Reaction Inhibitory Activity in Mice; assay type: in vivo, BALB/c mice; conditions: oral, 1 hour before induction, ear thickness 1 hour after induction
Procedure: Ear Edema Reaction Inhibitory Activity in Mice [Test Inflammation]
This test was test was carried out in accordance with the method of Sawada et al. (Clin. Exp. Allergy, Vol. 27, pp. 225-231, 1996). Each of BALB/c mice was immunized by the intraperitoneal injection of 1 μg of egg albumin which had been adsorbed to 1 mg of ALUM. After 14 days of the immunization, ear edema reaction was induced by intracutaneous injection of 1 μg of egg albumin into mouse earlobe. Ear edema (×10^2 mm) was calculated by measuring thickness of the ear before and 1 hour after the induction with a dial thickness gage (Peacok). Each of the drugs to be tested (compounds 1 and 2) was suspended in 0.5% hydropropylmethylcellulose (HPMC) solution and orally administered 1 hour before the reaction induction. Ear edema caused by the antigen was calculated by subtracting ear edema after respective time of induction in the case of the same treatment of normal mice, and the ear edema inhibition ratio (%) of the drugs to be tested was calculated based on the solvent-administered (control) group.

[3] = system: IL-4 production by CD4^+ T cells; experiment: Interleukin-4 (IL-4) Production Inhibitory Activity; assay type: cell-based; conditions: 24 h; mouse spleen CD4^+ T cells; IL-4 in supernatant by ELISA after 1 day; read-out: IL-4 production inhibition IC50
Procedure: Interleukin-4 (IL-4) Production Inhibitory Activity
This test was carried out in accordance with the method of Shelby et al. (J. Allergy Clin. Immunol., Vol. 100, No. 4, 511-519 (1997)). That is, CD4^+ T cells were purified from mouse spleen cells and suspended in 10% FCS-containing RPMI 1640 culture medium, and the cell suspension was inoculated into wells of a 24 well culture plate, which had been coated with anti-rat IgG, at a density of 3×10^6 cells per well. Anti-mouse CD3 antibody and anti-mouse CD28 antibody were added thereto, and the cells were cultured at 37° C. for 3 days in an atmosphere of 5% CO2. The thus grown cells were recovered, washed three times with HBSS (Hank's balanced salt solution) and then suspended in 10% FCS-containing RPMI 1640 culture medium. The cell suspension was inoculated into wells of a 24 well culture plate at a density of 1×10^6 cells per well, mixed with IL-2 and cultured for additional 3 days. The resulting cells were recovered, washed three times with HBSS and then suspended in 10% FCS-containing RPMI 1640 culture medium. The cell suspension was inoculated into wells of a 24 well culture plate, which had been coated with anti-rat IgG, at a density of 2×10^6 cells per well, anti-mouse CD3 antibody and anti-mouse CD28 antibody were added thereto, and the cells were again cultured for 1 day. The culture supernatant was recovered from each well to measure the amount of produced IL-4 by ELISA. Each drug to be tested was treated at the time of the second addition of anti-mouse CD3 antibody and anti-mouse CD28 antibody to calculate its inhibition percentage based on the control IL-4 production by the addition of the solvent alone, and IC50 (50% inhibition concentration) of each drug to be tested was calculated based on the regression line.

PDE(IV) = experiment: Phosphodiesterase IV (PDE (IV)) Inhibitory Activity; assay type: biochemical; conditions: rat brain PDE(IV); 3H-cAMP 1 μM; 37° C., 10 minutes; read-out: PDE(IV) inhibition IC50
Procedure: Phosphodiesterase IV (PDE (IV)) Inhibitory Activity
Purification of PDE (IV) and measurement of its activity were carried out by partially modifying the method of Saeki et al. (Biochem. Pharmacol., Vol. 46, 833-839, 1993). That is, PDE(IV) was purified by centrifuging rat brain homogenate at 105,000×g, applying the resulting supernatant to a Q-Sepharose column and then eluting the protein with a density gradient of 0 to 0.5 M NaCl.
Activity of PDE(IV) was measured by the following two step procedure. Using 3H-cAMP (1 μM in final concentration) as the substrate, the reaction was carried out at 37° C. for 10 minutes in a reaction solution containing tris(hydroxyl)aminomethane (50 mM, pH B8.0), EGTA (0.1 mM) and MgCl2 (0.1 mM) and then the reaction was stopped by incubating the reaction solution at 95° C. for 5 minutes. The thus formed 5'-AMP was hydrolyzed with 5'-nucleotidase, and AG1 X-8 resin was added thereto to effect adsorption of unreacted CAMP. After centrifugation, 3H-adenosinewas counted using a scintillation counter.

IL-4 production = conditions: in words, background art; cited from earlier work

SMILES | Airway reactivity acceleration inhibition ([1]; 30 mg/kg) [%] | Mouse ear edema reaction inhibition ([2]; 30 mg/kg) [%] | IC50 [3] [nM] | IC50 (PDE(IV)) [nM] | further results
COc1ccc(-c2nc3cc(-n4cncn4)ccc3[nH]2)c(OC)c1 [Control compound 2] | 30 | 17 | – | – | –
COc1ccc(-c2nc3cc(-n4cncn4)ccc3[nH]2)cc1OCC1CC1 [Compound 11] | – | – | 5500 | 1600 | –
COc1ccc(-c2nc3cc(-n4cncn4)ccc3[nH]2)cc1OC/C=C/c1ccccc1 [Compound 18] | – | – | 5100 | 51 | –
COc1ccc(-c2nc3cc(C(=O)O)ccc3[nH]2)cc1OC1CCCC1 [Control compound 4] | -17 | – | – | – | Mouse ear edema reaction inhibition ([2]; 100 mg/kg): 0%
COc1ccc(-c2nc3ccc(-n4cncn4)cc3[nH]2)cc1OC1CCCC1 [Compound 2, 2-(3-cyclopentyloxy-4-methoxyphenyl)-5-(1,2,4-triazol-1-yl)benzimidazole] | 47 | 78 | – | – | –
COc1ccc(-c2nc3ccc(-n4cncn4)cc3[nH]2)cc1OC1C=CCCC1 (stereo not drawn) [Compound 14, 2-[3-(2-cyclohexenyloxy)-4-methoxyphenyl]-5-(1,2,4-triazol-1-yl)benzimidazole] | – | – | 6100 | 540 | –
COc1ccc(-c2nc3cc(C(=O)O)ccc3[nH]2)cc1OC1Cc2ccccc2C1 [Control compound 5] | -3 | – | – | – | Mouse ear edema reaction inhibition ([2]; 100 mg/kg): 0%
COc1ccc(-c2nc3cc(-n4cncn4)ccc3[nH]2)cc1OC1C=CCCCC1 (stereo not drawn) [Compound 25] | – | – | 2800 | 730 | –
COc1ccc(-c2nc3ccc(-n4cncn4)cc3[nH]2)cc1OC(C)C [Compound 1, 2-(3-isopropoxy-4-methoxyphenyl)-5-(1,2,4-triazol-1-yl)benzimidazole] | – | 60 | 4300 | 20 | Airway reactivity acceleration inhibition ([1]; 10 mg/kg): 58%
COc1ccc(/C(C)=N/OC(N)=O)cc1OC1CCCC1 [PDA-641] | – | – | – | – | IL-4 production inhibitory activity (IL-4 production): weak
